# Measured values: patent US7786142B2, “Heterocyclic compounds as pSTAT3/IL-6 inhibitors” (Orchid Research Laboratories, Ltd., priority 2005, dated 2010)
# Entries after “also recorded” stand apart in the source; their conditions may differ.
# Legend:
# Format in all cases: cell-based
# [1] = test system: MDAMB-231/U 251; assay: Anti-cancer screen (MTT), MDAMB-231/U 251 cells; settings: MDAMB-231/U 251, 48 hours, concentrations tested 0.01-100 μM
# In short: (§1)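 Cells (5000/well) in DMEM with 10% FBS were treated for 48 hours with 0.01, 0.1, 1, 10 and 100 μM compound in triplicate. MTT read at 570 nm gave percent growth relative to untreated controls and pre-dose T0 wells, from which GI50, TGI and LC50 were derived.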
# [2] = test system: NCIH460 cells; assay: Anti-cancer screen (MTT), NCIH460 cells; settings: Homo sapiens, NCI-H460, NCIH460, 48 hours, concentrations tested 0.01-100 μM
# In short: as §1
# [3] = test system: pSTAT3; assay: pSTAT3 inhibition (Western blot in DU 145 / SKOV-3 cells; ELISA in HepG2 cells); settings: in words; FIGS. 1 and 2
# Experimental: Western blot analysis was performed as described by Kammer W et. al (J Biol Chem 271, 23634-23637, and J Biol Chem 273, 31222-31229). Briefly, 60 μg of whole cell extract was solubilized in Laemmeli buffer (50 mM Tris/HCl, pH 6.8, 2% SDS, 10% glycerol, 1 mM DTT, 1× Protease inhibitor cocktail, SET-3 (Calbiochem), 1 mM Sodium Ortho-vanadate) boiled for 5-10 minutes, and separated on a 10 or 12% acrylamide SDS gel. After protein transfer, the nitrocellulose membranes were blocked in blocking buffer for 2 hour (1×TBS, 0.1% Tween-20, 5% BSA). Membranes were incubated for 20 hours in blocking buffer containing, STAT3 P-Tyr705 (Santa Cruz Biotech), STAT3 (H-190, Santa Cruz Biotech) and Actin (C-2, Santa Cruz Biotech) antibody at 1:300 dilution. Detection was performed with HRP conjugated antimouse/antirabbit IgG (Santa Cruz Biotech) at a dilution of 1:3,000 for 1 hour. Visualization was performed using an Enhanced Chemiluminescence detection kit (Amersham). See Appended Diagrams: FIGS. 1 and 2. […]
# Capture Antibody was diluted to a working concentration of 2.0 μg/mL in PBS. […] The plates were made ready after 2-3 washes with wash buffer. […] The reaction was stopped by adding 50 μl of stop solution to each well and the OD was determined using a microplate reader at 450 nm.
# [4] = read-out: LC50 (the source's name)
compound,measurement,setting,value
"COc1ccc(CNC[C@H](O)COc2cccc3[nH]c4ccccc4c23)c(OC)c1 [Example 25, (2S)-1-(9H-carbazol-4-yloxy)-3-[(2,4-dimethoxybenzyl)amino]propan-2-ol]",GI50,[1],13 µM
same,IC (TGI),[1],49 µM
same,CC50,[1]; [4],81 µM
same,GI50,[2],0.67 µM
same,IC (TGI),[2],55 µM
same,CC50,[2]; [4],68 µM
same,pSTAT3 inhibition,[3],work through pSTAT3 inhibition; also recorded: operates through pSTAT3 inhibition
